The experiment concerns the target Bruton's Tyrosine Kinase (BTK), inactivated state (Homo sapiens (Human), UniProt Q06187). The experiment can be described thus: Bruton's Tyrosine Kinase (BTK) Inhibition TR-FRET (Time Resolved FRET) competition assay. The note with it: Kinase Tracer 178, BTK-Eu, 18-24 h at 14° C. In kind it is binding. The procedure: Bruton's Tyrosine Kinase (BTK) Inhibition TR-FRET (Time Resolved FRET) Assay
This BTK competition assay measures compound potency (IC50) for the inactivated state of Bruton's Tyrosine Kinase using FRET (Forster/Fluorescence Resonance Energy Transfer) technology. The BTK-Eu complex was incubated on ice one hour prior to use at a starting concentration of 50 nM BTK-Bioease™: 10 nM Eu-streptavidin (Perkin-Elmer Catalog# AD0062). The assay buffer consisted of 20 mM HEPES (pH 7.15), 0.1 mM DTT, 10 mM MgCl2, 0.5 mg/ml BSA with 3% Kinase Stabilizer (Fremont Biosolutions, Catalog # STB-K02). After 1 h, the reaction mixture from above was diluted 10 fold in assay buffer to make 5 nM BTK: 1 nM Eu-Streptavidin complex (donor fluorophore). 18 μl of a mixture of 0.11 nM BTK-Eu and 0.11 nM Kinase Tracer 178 (Invitrogen, Catalog # PV5593,) with BTK-Eu alone as no negative control, was then dispensed into 384-well flat bottom plates (Greiner, 784076). Compounds to be tested in assay were prepared as 10× concentrations and serial dilution in half-log increments was performed in DMSO so as to generate 10 point curves. To initiate the FRET reaction, compounds prepared as 10× stock in DMSO was added to the plates and the plates were incubated 18-24 h at 14° C.
After the incubation the plates were read on a BMG Pherastar Fluorescent plate reader (or equivalent) and used to measure the emission energy from the europium donor fluorophore (620 nm emission) and the FRET (665 nm emission). The negative control well values were averaged to obtain the mean minimum. The positive “no inhibitor” control wells were averaged to obtain the mean maximum. Percent of maximal FRET was calculated using following equation: % max FRET=100×[(FSRcmpd−FSRmean min)/(FSRmean max−FSRmean min)] where FSR=FRET Signal ratio. % Max FRET curves were plotted in Activity Base (Excel) and the IC50(%), hill slope, z′ and % CV were determined. The mean IC50 and standard deviation will be derived from duplicate curves (singlet inhibition curves from two independent dilutions) using Microsoft Excel.
(In TR-FRET formats the signal depends on donor and acceptor labels being close together.)
Bruton's Tyrosine Kinase (BTK), inactivated state, sequence (Q06187 whole entry): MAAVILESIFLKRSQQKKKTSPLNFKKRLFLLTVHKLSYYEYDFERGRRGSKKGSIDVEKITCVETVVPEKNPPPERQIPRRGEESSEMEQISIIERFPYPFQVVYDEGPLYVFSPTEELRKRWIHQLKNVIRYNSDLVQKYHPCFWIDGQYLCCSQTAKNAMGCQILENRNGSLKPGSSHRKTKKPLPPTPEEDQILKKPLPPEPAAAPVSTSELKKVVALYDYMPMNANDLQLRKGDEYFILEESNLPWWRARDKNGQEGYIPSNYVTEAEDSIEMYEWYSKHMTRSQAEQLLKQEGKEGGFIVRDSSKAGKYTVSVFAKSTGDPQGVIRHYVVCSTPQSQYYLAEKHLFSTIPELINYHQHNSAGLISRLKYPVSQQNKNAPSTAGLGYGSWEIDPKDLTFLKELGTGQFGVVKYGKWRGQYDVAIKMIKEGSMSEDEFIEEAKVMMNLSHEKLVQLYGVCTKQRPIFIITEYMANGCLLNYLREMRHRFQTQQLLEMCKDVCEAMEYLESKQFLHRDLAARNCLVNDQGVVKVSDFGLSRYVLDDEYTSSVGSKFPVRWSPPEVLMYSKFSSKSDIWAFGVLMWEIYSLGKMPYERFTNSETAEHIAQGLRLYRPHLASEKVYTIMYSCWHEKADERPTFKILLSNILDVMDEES
The term IC50 denotes the point on the concentration scale where inhibition reaches its midpoint. High values mean weaker potency in that assay, low ones greater potency in that assay. `NC(=O)c1nc(N2CCC[C@@H](NC(=O)N3Cc4ccc(Cl)cc4C3)C2)sc1Nc1ccccn1` [Compound 2, 5-Chloro-1,3-dihydro-isoindole-2-carboxylic acid {(R)-1-[4-carbamoyl-5-(pyridin-2-ylamino)-thiazol-2-yl]-piperidin-3-yl}-amide] returned an IC50 of 7.74 µM.

Compound `CC(C)(C)OC(=O)N[C@@H]1CCCN(c2nc(C(N)=O)c(Nc3ccccn3)s2)C1` [Compound 3, {(R)-1-[4-Carbamoyl-5-(pyridin-2-ylamino)-thiazol-2-yl]-piperidin-3-yl}-carbamic acid tert-butyl ester] registered an IC50 of 1.21 µM.

With `CC(C)(C)c1ccc(C(=O)N[C@@H]2CCCN(c3nc(C(N)=O)c(Nc4ccccn4)s3)C2)cn1` [Compound 4, 6-tert-Butyl-N-{(R)-1-[4-carbamoyl-5-(pyridin-2-ylamino)-thiazol-2-yl]-piperidin-3-yl}-nicotinamide], the IC50 amounted to 1.73 µM.

The compound `NC(=O)c1nc(N2CCC[C@@H](NC(=O)Cc3ccccc3)C2)sc1Nc1ccccn1` [Compound 5, 2-((R)-3-Phenylacetylamino-piperidin-1-yl)-5-(pyridin-2-ylamino)-thiazole-4-carboxylic acid amide] had an IC50 of 6.24 µM.

Turning to `Cc1cccc(CC(=O)N[C@@H]2CCCN(c3nc(C(N)=O)c(Nc4ccccn4)s3)C2)c1` [Compound 6, 5-(Pyridin-2-ylamino)-2-[(R)-3-(2-m-tolyl-acetylamino)-piperidin-1-yl]-thiazole-4-carboxylic acid amide], the IC50 came to 7.51 µM.

The compound `CC(C)(C)c1ccc(C(=O)N[C@@H]2CCCN(c3nc(C(N)=O)c(Nc4ccccn4)s3)C2)cc1` [Compound 7, 2-[(R)-3-(4-tert-Butyl-benzoylamino)-piperidin-1-yl]-5-(pyridin-2-ylamino)-thiazole-4-carboxylic acid amide] had an IC50 of 0.47 µM.

In turn, `CS(=O)(=O)N[C@@H]1CCCN(c2nc(C(N)=O)c(Nc3ccccn3)s2)C1` [Compound 8, 2-((R)-3-Methanesulfonylamino-piperidin-1-yl)-5-(pyridin-2-ylamino)-thiazole-4-carboxylic acid amide] displayed an IC50 of 5.07 µM.

`NC(=O)c1nc(N2CCC[C@@H](NS(=O)(=O)c3ccccc3)C2)sc1Nc1ccccn1` [Compound 9, 2-((R)-3-Benzenesulfonylamino-piperidin-1-yl)-5-(pyridin-2-ylamino)-thiazole-4-carboxylic acid amide] had an IC50 of 1.61 µM.

The compound `CC(C)S(=O)(=O)N[C@@H]1CCCN(c2nc(C(N)=O)c(Nc3ccccn3)s2)C1` [Compound 10, 2-[(R)-3-(Propane-2-sulfonylamino)-piperidin-1-yl]-5-(pyridin-2-ylamino)-thiazole-4-carboxylic acid amide] gave an IC50 of 5.8 µM.

As for `CC(=O)N[C@@H]1CCCN(c2nc(C(N)=O)c(Nc3ccccn3)s2)C1` [Compound 12, 2-((R)-3-Acetylamino-piperidin-1-yl)-5-(pyridin-2-ylamino)-thiazole-4-carboxylic acid amide], the IC50 turned out to be 6.03 µM.

These data come from patent publication US9359345B2, “Thiazole derivatives as inhibitors of Bruton's tyrosine kinase” (Hoffmann-La Roche Inc., priority 2012, dated 2016).
